Laboratory results taken from patent US5308856A, “Thiazolidine-2,4-dione derivatives, salts and preparation processes thereof” (Kyorin Pharmaceutical Co., Ltd., priority 1991, dated 1994).
pIC50: −log10 of the molar value.

Legend:
blood glucose [1] = assay: Improvement of Glucose Tolerance in Genetically Obese Mice (OGTT); format: in vivo, Genetically obese mice (CS57BL ob/ob mice); settings: ob/ob mice, fasted 18 h, glucose 2 g/kg p.o.
Procedure: Improvement of Glucose Tolerance in Genetically Obese Mice
Genetically obese mice (CS57BL ob/ob mice) were orally administered with the compound of Example 1 once daily for 5 days at 10, 30 or 100 mg/kg/day, respectively. They were fasted for 18 hours and then 2 g/kg of glucose was orally administered. Blood samples were collected from the tail vein 0, 30, 60 and 120 minutes after the administration of glucose for the determination of blood glucose (Table 2).

blood glucose [2] = assay: Enhancement of Insulin Sensitivity in Rats; format: in vivo; settings: 10 mg/kg/day p.o. once daily 5 days, fasted 18 h, insulin 0.1 unit/kg i.p., n = 5, *P < 0.01, reference (insulin only) 11.0 ± 0.8
Procedure: Enhancement of Insulin Sensitivity in Rats
After rats were orally administered with the compound of Example 1 once daily for 5 days at 10 mg/kg/day, they were fasted for 18 hours and then insulin was intraperitoneally injected at 0.1 unit/kg. Blood samples were collected from the tail vein 0 and 1 hour after the injection of insulin for the determination of blood glucose (Table 1).

[3] = target: T1, aldose reductase extracted from rat lens (Rattus norvegicus, UniProt P07943); assay: Inhibition of Aldose Reductase in Vitro; format: biochemical
T1 construct: aldose reductase extracted from rat lens; from tissue; host or cells: rat lens
Source text: Inhibition of Aldose Reductase in Vitro
According to the method of Hyman and Kinoshita (J. Biol. Chem., 240, 877, 1965), inhibitory activity of the compound of Example 23 on aldose reductase extracted from rat lens was investigated. As a result, the following IC50 value was obtained (Table 3).

pIC50 [3]: 7.05
Compound: O=C1NC(=O)C(c2ccc(N3Cc4ccccc4C3=O)cc2)S1 (centres unmarked) [Example 1, 5-(4-(1-Oxoisoindoline-2-yl)Phenyl)Thiazolidine-2,4-Dione]
OGTT (% of control) (blood glucose [1]; 10 mg/kg/day p.o. once daily 5 days): 98.2 % of control
OGTT (% of control) (blood glucose [1]; 30 mg/kg/day p.o. once daily 5 days): 84.1 % of control
OGTT (% of control) (blood glucose [1]; 100 mg/kg/day p.o. once daily 5 days): 81.1 % of control
0 hour value-1 hour value (blood glucose) (blood glucose [2]): 23.0 ± 1.2 mg %
